{"source": "patent US5545629A", "about": "“5-ethoxy-2'-deoxyuridines” (Montefiore Medical Center, priority 1994, dated 1996)", "key": {"[1]": {"tested_on": "HT-29 cells", "test": "growth inhibition of HT-29 cells, 6 days, sulforhodamine B staining", "type": "cell-based, human", "settings": "for IC50: HT-29, 6 days, sulforhodamine B", "protocol": "The growth inhibitory effect of 5-ethoxy-2'-deoxyuridine was compared with other analogous 5-substituted-2'-deoxyuridine compounds by determining the IC50 of each compound in an assay which measured the growth inhibition of HT-29 cells. The HT-29 cells were placed in 96 well plates (2×10^4 cells per well) in RPMI 1640 with 10% added fetal bovine serum. After allowing the cells to attach overnight, several concentrations of the test compounds were added. After 6 days, cell numbers were quantitated by staining with sulforhodamine B (Skehan et al., J. Natl. Canc. Inst, 82, 1107-1112, 1990)."}, "[2]": {"tested_on": "HT-29 human carcinoma cells", "test": "in vitro clonogenic assay (cloning efficiency) with HT-29 cells, 72 h drug exposure", "type": "cell-based", "settings": "for IC50: read-out: IC50 for 5-fluorouracil (50% reduction of cloning efficiency)", "protocol": "For assessment of the antitumor activity of 5-ethoxy-2'-deoxyuridine, an in vitro clonogenic assay was used. The assay was based on a modification of procedures first described by Puck and Marcus (Proc. Natl. Acad. Sci. (USA) 41:432-437, 1955). […] 3:225-231, 1991; A. F. Sobrero et al., J. Natl. Cancer Inst. 85:1937-1944, 1993).\nHT-29 human carcinoma cells (ATCC No. HTB-38) were maintained in RPMI 1640 with 10% v/v fetal bovine serum (GIBCO) in a humidified, 5% CO2 atmosphere at 37° C. Cells were plated in 24 well plates (150 cells per well) in RPMI 1640 medium with 10% v/v dialyzed fetal bovine serum. After allowing cell attachment to proceed overnight, combinations of interferon-α (500 units/ml; Roferon-A, Roche Labs.), 5-ethoxy-2'-deoxyuridine (150 μM), in the presence of increasing concentrations of 5-fluorouracil (as specified in the Table) were added. The various agents were diluted in phosphate-buffered saline, and control wells received vehicle alone. After 72 hours, drug containing medium was removed and replaced with RPMI 1640 with 10% v/v fetal bovine serum. Cell colonies were allowed to grow for an additional 7-10 days, at which point they were stained and counted. […] Data are means of at least 3 determinations. The IC50 values for 5-fluorouracil were calculated graphically by determining the concentration of 5-fluorouracil that reduced cloning efficiency by 50% from the cloning efficiency value measured in the absence of 5-fluorouracil."}}, "note": "Where two headings read alike, the source gives them in different places.", "data": [{"compound": "5-propynyloxy-2'-deoxyuridine", "values": [{"measurement": "IC50", "setting": "[1]", "value": "> 3000", "unit": "µM"}]}, {"compound": "O=c1[nH]cc(F)c(=O)[nH]1", "note": "[5-FU, 5-fluorouracil]", "values": [{"measurement": "Cloning Efficiency (% of control)", "setting": "[2]; 5-FU 0.025 μM with 5-ETH 150 μM + IFN 500 u/ml, 4320 min", "value": "89 % of control"}, {"measurement": "Cloning Efficiency (% of control)", "setting": "[2]; 5-FU 0.05 μM with 5-ETH 150 μM + IFN 500 u/ml, 4320 min", "value": "81 % of control"}, {"measurement": "Cloning Efficiency (% of control)", "setting": "[2]; 5-FU 0.05 μM with 5-ETH 150 μM, 4320 min", "value": "81 % of control"}, {"measurement": "Cloning Efficiency (% of control)", "setting": "[2]; 5-FU 0.10 μM with 5-ETH 150 μM + IFN 500 u/ml, 4320 min", "value": "38 % of control"}, {"measurement": "Cloning Efficiency (% of control)", "setting": "[2]; 5-FU 0.10 μM with 5-ETH 150 μM, 4320 min", "value": "80 % of control"}, {"measurement": "Cloning Efficiency (% of control)", "setting": "[2]; 5-FU 0.15 μM with 5-ETH 150 μM + IFN 500 u/ml, 4320 min", "value": "9 % of control"}, {"measurement": "Cloning Efficiency (% of control)", "setting": "[2]; 5-FU 0.25 μM with 5-ETH 150 μM + IFN 500 u/ml, 4320 min", "value": "0 % of control"}, {"measurement": "Cloning Efficiency (% of control)", "setting": "[2]; 5-FU 0.25 μM with 5-ETH 150 μM, 4320 min", "value": "60 % of control"}, {"measurement": "Cloning Efficiency (% of control)", "setting": "[2]; 5-FU 0.25 μM with IFN 500 u/ml, 4320 min", "value": "97 % of control"}, {"measurement": "Cloning Efficiency (% of control)", "setting": "[2]; 5-FU 0.50 μM with 5-ETH 150 μM, 4320 min", "value": "38 % of control"}, {"measurement": "Cloning Efficiency (% of control)", "setting": "[2]; 5-FU 0.50 μM with IFN 500 u/ml, 4320 min", "value": "83 % of control"}, {"measurement": "Cloning Efficiency (% of control)", "setting": "[2]; 5-FU 1.0 μM with 5-ETH 150 μM, 4320 min", "value": "13 % of control"}, {"measurement": "Cloning Efficiency (% of control)", "setting": "[2]; 5-FU 1.0 μM with IFN 500 u/ml, 4320 min", "value": "56 % of control"}, {"measurement": "Cloning Efficiency (% of control)", "setting": "[2]; 5-FU 1.5 μM with 5-ETH 150 μM, 4320 min", "value": "4 % of control"}, {"measurement": "Cloning Efficiency (% of control)", "setting": "[2]; 5-FU 1.5 μM with IFN 500 u/ml, 4320 min", "value": "18 % of control"}, {"measurement": "Cloning Efficiency (% of control)", "setting": "[2]; 5-FU 2.0 μM with IFN 500 u/ml, 4320 min", "value": "8 % of control"}, {"measurement": "Cloning Efficiency (% of control)", "setting": "[2]; 5-FU 3.0 μM with IFN 500 u/ml", "value": "1 % of control"}, {"measurement": "IC50", "setting": "[2]; Homo sapiens, HT-29, 72 h, 5-FU alone (CONT, PBS)", "value": 2, "unit": "µM"}, {"measurement": "IC50", "setting": "[2]; Homo sapiens, HT-29, 72 h, 5-FU with 5-ETH 150 μM + IFN 500 u/ml", "value": 0.08, "unit": "µM"}, {"measurement": "IC50", "setting": "[2]; Homo sapiens, HT-29, 72 h, 5-FU with 5-ETH 150 μM", "value": 0.35, "unit": "µM"}, {"measurement": "IC50", "setting": "[2]; Homo sapiens, HT-29, 72 h, 5-FU with IFN 500 u/ml", "value": 1.1, "unit": "µM"}, {"measurement": "activity at 0.25 µM", "setting": "[2]; Homo sapiens, HT-29, 72 h, 5-FU 0.25 μM alone (CONT, PBS), read-out: Cloning Efficiency (% of control)", "value": 104, "unit": "%"}, {"measurement": "activity at 0.5 µM", "setting": "[2]; Homo sapiens, HT-29, 72 h, 5-FU 0.50 μM alone (CONT, PBS), read-out: Cloning Efficiency (% of control)", "value": 93, "unit": "%"}, {"measurement": "activity at 1 µM", "setting": "[2]; Homo sapiens, HT-29, 72 h, 5-FU 1.0 μM alone (CONT, PBS), read-out: Cloning Efficiency (% of control)", "value": 87, "unit": "%"}, {"measurement": "activity at 1.5 µM", "setting": "[2]; Homo sapiens, HT-29, 72 h, 5-FU 1.5 μM alone (CONT, PBS), read-out: Cloning Efficiency (% of control)", "value": 60, "unit": "%"}, {"measurement": "activity at 2 µM", "setting": "[2]; Homo sapiens, HT-29, 72 h, 5-FU 2.0 μM alone (CONT, PBS), read-out: Cloning Efficiency (% of control)", "value": 55, "unit": "%"}, {"measurement": "activity at 3 µM", "setting": "[2]; Homo sapiens, HT-29, 72 h, 5-FU 3.0 μM alone (CONT, PBS), read-out: Cloning Efficiency (% of control)", "value": 27, "unit": "%"}, {"measurement": "activity at 4 µM", "setting": "[2]; Homo sapiens, HT-29, 72 h, 5-FU 4.0 μM alone (CONT, PBS), read-out: Cloning Efficiency (% of control)", "value": 5, "unit": "%"}]}, {"compound": "CCOc1cn([C@H]2C[C@H](O)[C@@H](CO)O2)c(=O)[nH]c1=O", "note": "[5-ethoxy-2'-deoxyuridine]", "values": [{"measurement": "toxicity relative to the ethyl analog", "setting": "[1]; HT-29 cytotoxicity, fraction of the toxicity of the ethyl analog", "value": "about 1/300"}, {"measurement": "toxicity relative to the methyloxy analog", "setting": "[1]; HT-29 cytotoxicity, fraction of the toxicity of the methyloxy analog", "value": "about 1/27"}, {"measurement": "toxicity relative to the propyloxy analog", "setting": "[1]; HT-29 cytotoxicity, fraction of the toxicity of the propyloxy analog", "value": "about 1/2"}, {"measurement": "IC50", "setting": "[1]; Homo sapiens, 144 h", "value": 750, "unit": "µM"}, {"measurement": "toxicity compared with many other prior art 5-substituted-2'-deoxyuridines that have been tested", "setting": "[1]; statement in words", "value": "less toxic"}, {"measurement": "activity at 150 µM", "setting": "[2]; Homo sapiens, HT-29, 72 h, 5-ETH 150 μM alone, no 5-FU (0), read-out: Cloning Efficiency (% of control)", "value": 89, "unit": "%"}]}, {"compound": "CCc1cn([C@H]2C[C@H](O)[C@@H](CO)O2)c(=O)[nH]c1=O", "note": "[5-ethyl-2'-deoxyuridine]", "values": [{"measurement": "IC50", "setting": "[1]; Homo sapiens, 144 h", "value": 2.5, "unit": "µM"}]}, {"compound": "COc1cn([C@H]2C[C@H](O)[C@@H](CO)O2)c(=O)[nH]c1=O", "note": "[5-methoxy-21-deoxyuridine]", "values": [{"measurement": "IC50", "setting": "[1]; Homo sapiens, 144 h", "value": 28, "unit": "µM"}]}, {"compound": "CCCOc1cn([C@H]2C[C@H](O)[C@@H](CO)O2)c(=O)[nH]c1=O", "note": "[5-propyloxy-2'-deoxyuridine]", "values": [{"measurement": "IC50", "setting": "[1]; Homo sapiens, 144 h", "value": 325, "unit": "µM"}]}]}
